Columns and labels:
Experiment in all cases: Post-emergence herbicidal action
Type in all cases: in vivo
[1] = system: ALOMY: Alopecurus myosuroides; conditions: rated visually after about 3 weeks
Protocol: (§1) [table] Seeds of monocotyledonous and dicotyledonous weeds and crop plants are placed in sandy loam in plastic or wood-fiber pots, covered with soil and cultivated in a greenhouse under controlled growth conditions. 2 to 3 weeks after sowing, the test plants are treated at the one-leaf stage. The compounds of the invention, formulated in the form of wettable powders (WP) or as emulsion concentrates (EC), are then sprayed onto the green parts of the plants as aqueous suspension or emulsion with addition of 0.5% additive at a water application rate of […] (converted). After the test plants had been kept in the greenhouse under optimum growth conditions for about 3 weeks, the activity of the preparations is rated visually in comparison to untreated controls. For example, 100% activity=the plants have died, 0% activity=like control plants.

[2] = system: AMARE: Amaranthus retroflexus; conditions: rated visually after about 3 weeks
Protocol: as §1

AVEFA: Avena fatua = conditions: rated visually after about 3 weeks
Protocol: as §1

[3] = system: ECHCG: Echinochloa crus-galli; conditions: rated visually after about 3 weeks
Protocol: as §1

HORMU: Hordeum murinum = conditions: rated visually after about 3 weeks
Protocol: as §1

LOLRI: Lolium rigidum = conditions: rated visually after about 3 weeks
Protocol: as §1

[4] = system: POLCO: Polygonum convolvulus; conditions: rated visually after about 3 weeks
Protocol: as §1

SETVI: Setaria viridis = conditions: Table C3, post-emergence, 320 g/ha, rated visually after about 3 weeks
Protocol: as §1

VERPE: Veronica persica = conditions: rated visually after about 3 weeks
Protocol: as §1

VIOTR: Viola tricolor = conditions: Table C3, post-emergence, 320 g/ha, rated visually after about 3 weeks
Protocol: as §1

DIGSA = conditions: Table C3, post-emergence, 320 g/ha, rated visually after about 3 weeks
Protocol: as §1, with “Seeds” for “[table] Seeds”

STEME: Stellaria media = conditions: Table C2, post-emergence, dosage 320 (0.32 kg of active substance per hectare), rated visually after about 3 weeks
Protocol: as §1

[5] = Table C3, post-emergence, 320 g/ha
[6] = Table C2, post-emergence, dosage 320 (0.32 kg of active substance per hectare)

| SMILES | Herbicidal action against [%] ALOMY [1, 5] [%] | Herbicidal action against [%] AMARE [2, 5] [%] | Herbicidal action against [%] AVEFA (AVEFA: Avena fatua; [5]) [%] | Herbicidal action against [%] ECHCG [3, 5] [%] | Herbicidal action against [%] HORMU (HORMU: Hordeum murinum; [5]) [%] | Herbicidal action against [%] LOLRI (LOLRI: Lolium rigidum; [5]) [%] | Herbicidal action against [%] POLCO [4, 5] [%] | Herbicidal action against [%] SETVI (SETVI: Setaria viridis) [%] | Herbicidal action against [%] VERPE (VERPE: Veronica persica; [5]) [%] | Herbicidal action against [%] VIOTR (VIOTR: Viola tricolor) [%] | Herbicidal action against [%] DIGSA (DIGSA) [%] | Herbicidal action against [%] ALOMY [1, 6] [%] | Herbicidal action against [%] AMARE [2, 6] [%] | Herbicidal action against [%] AVEFA (AVEFA: Avena fatua; [6]) [%] | Herbicidal action against [%] ECHCG [3, 6] [%] | Herbicidal action against [%] HORMU (HORMU: Hordeum murinum; [6]) [%] | Herbicidal action against [%] LOLRI (LOLRI: Lolium rigidum; [6]) [%] | Herbicidal action against [%] POLCO [4, 6] [%] | Herbicidal action against [%] STEME (STEME: Stellaria media) [%] | Herbicidal action against [%] VERPE (VERPE: Veronica persica; [6]) [%] |
| --- | --- | --- | --- | --- | --- | --- | --- | --- | --- | --- | --- | --- | --- | --- | --- | --- | --- | --- | --- | --- |
| COC(=O)C1CCC(NC(=O)C2(C(F)(F)F)CC(c3cc(C)cc(F)c3)=NO2)C1 (mixture of isomers) [Example I-537] | 90 | 100 | 90 | 100 | 80 | 90 | 90 | 90 | 100 | 100 | 90 |  |  |  |  |  |  |  |  |  |
| Cc1cc(F)cc(C2=NOC(C(=O)NC3CCC(C(=O)OCCCl)C3)(C(F)(F)F)C2)c1 (mixture of isomers) [Example I-574] | 100 | 100 | 100 | 90 | 80 | 90 | 80 | 90 | 90 | 80 | 80 |  |  |  |  |  |  |  |  |  |
| Cc1cc(F)cc(C2=NOC(C(=O)NC3CCC(C(=O)OCC(F)(F)F)C3)(C(F)(F)F)C2)c1 (mixture of isomers) [Example I-580] | 90 | 90 | 100 | 80 | 90 | 90 | 80 | 90 | 90 | 100 | 90 |  |  |  |  |  |  |  |  |  |
| CCOC(=O)C1CCC(NC(=O)C2(C(F)(F)F)CC(c3cc(C)cc(Cl)c3)=NO2)C1 (mixture of isomers) [Example I-808] | 90 | 80 | 90 | 80 | 90 | 90 | 100 | 90 | 90 | 80 | 90 |  |  |  |  |  |  |  |  |  |
| CC(C)(C)OC(=O)[C@@H]1CC[C@H](NC(=O)[C@@]2(C(F)(F)F)CC(c3cc(F)cc(F)c3)=NO2)C1 [Example I-95] |  |  |  |  |  |  |  |  |  |  |  | 90 | 80 | 100 | 80 | 90 | 100 | 90 | 90 | 80 |
| O=C(OCCCl)[C@@H]1CC[C@H](NC(=O)[C@@]2(C(F)(F)F)CC(c3cc(F)cc(F)c3)=NO2)C1 [Example I-109, 2-chloroethyl-(1R,3S)-3-({[(5R)-3-(3,5-difluorophenyl)-5-(trifluoromethyl)-4,5-dihydro-1,2-oxazol-5-yl]carbonyl}amino)cyclopentanecarboxylate] |  |  |  |  |  |  |  |  |  |  |  | 90 | 80 | 90 | 90 | 90 | 80 | 80 | 90 | 80 |
| O=C(OCC(F)(F)F)[C@@H]1CC[C@H](NC(=O)[C@@]2(C(F)(F)F)CC(c3cc(F)cc(F)c3)=NO2)C1 [Example I-123] |  |  |  |  |  |  |  |  |  |  |  | 90 | 80 | 90 | 80 | 90 | 100 | 90 | 90 | 80 |

From patent US20200369630A1, “HERBICIDALLY ACTIVE 3-PHENYL-5-TRIFLUOROMETHYLISOXAZOLINE-5-CARBOXAMIDES OF CYCLOPENTYLCARBOXYLIC ACIDS AND ESTERS” (Bayer Aktiengesellschaft, priority 2017, published 2020)
